According to the NIST ThermoML archive (doi:10.1016/j.jct.2016.10.007):
Numbers after ± are expanded uncertainties.

Legend:
[1] = Wilhemy plate method
[2] = wn = mass fraction of the nth substance listed; conditions: Wilhemy plate method

O [water]
Conditions | surface tension liquid-gas [mN/m]
[1], 298.2 K | 71.9 ± 0.2

CCN(CC)CCO [(diethylamino)ethanol] + O
surface tension liquid-gas [mN/m], [2]
Conditions | 303.2 K | 313.2 K | 323.2 K
w1 = 0.1 | 41.2 ± 0.4 | 39.2 ± 0.5 | 37.3 ± 0.5
w1 = 0.137 | 40.1 ± 0.6 | – | –
w1 = 0.2 | 36.5 ± 0.3 | 34.7 ± 0.4 | 33.1 ± 0.4
w1 = 0.213 | 36.3 ± 0.3 | – | –
w1 = 0.3 | 34.9 ± 0.3 | 33.2 ± 0.3 | 31.7 ± 0.3
w1 = 0.4 | 33.6 ± 0.3 | 32.1 ± 0.3 | 30.7 ± 0.3
w1 = 0.483 | 32.9 ± 0.3 | – | –
w1 = 0.5 | 32.7 ± 0.3 | 31.2 ± 0.3 | 29.9 ± 0.3
w1 = 0.58 | 31.8 ± 0.3 | – | –
w1 = 0.6 | 31.3 ± 0.4 | 29.8 ± 0.3 | 28.3 ± 0.3
w1 = 0.685 | 30.7 ± 0.4 | – | –
w1 = 0.7 | 30.3 ± 0.4 | 28.7 ± 0.3 | 27.3 ± 0.3
w1 = 0.8 | 29.6 ± 0.3 | 28 ± 0.3 | 26.6 ± 0.3
w1 = 0.814 | 29.5 ± 0.3 | – | –
w1 = 0.9 | 28.7 ± 0.3 | 27.3 ± 0.3 | 26 ± 0.3
w1 = 0.91 | 28.6 ± 0.3 | – | –
w1 = 1 | 27.7 ± 0.3 | 26.4 ± 0.3 | 25.2 ± 0.3

CCN(CC)CCO [(diethylamino)ethanol]
[1]
Conditions | surface tension liquid-gas [mN/m]
283.2 K | 29.7 ± 0.3
293.2 K | 28.6 ± 0.3
303.2 K | 27.7 ± 0.3
313.2 K | 26.4 ± 0.3
323.2 K | 25.2 ± 0.3
